US20250305004A1, “ENHANCING GENE TARGETING EFFICIENCY IN HUMAN CELLS WITH DNA-PK INHIBITOR TREATMENT” (The Board of Trustees of the Leland Stanford Junior …, priority 2022, published 2025)

Columns and labels:
CCR5 locus in PSCs = assay: RNP/AAV6 gene targeting at CCR5 locus, knock-in of UBC-GFP-bGHpA (2.6 kb), PSCs; assay type: cell-based, human; conditions: tested at 1, 0.1 and 0.01 μM
Method: (§1) Gene targeting efficiency was measured by droplet digital PCR (ddPCR) and flow cytometry (for GFP) to measure the allelic targeting efficiency (FIG. 2B) and percentage of targeted cells (FIG. 2C) respectively. […] The treatment was carried out for 24 hours post gene targeting and the efficiency was calculated 1 week post gene targeting using ddPCR analysis.
PSC culture and genome editing. […] For each nucleofection, RNP complex was prepared with 5 μg of Cas9 protein and 2 μg of gRNA and incubated for 15 mins at room temperature. PSCs were dissociated into single cells using Accutase (Innovative Cell Technologies, cat: AT104). […] Gene targeting efficiency was analyzed at 4-6 days post-editing.
(§2) ddPCR analysis of targeted integration. Gene targeting efficiency for the knock-in of multi-kb sequences was measured through digital droplet PCR (ddPCR) analysis. […] After PCR, the droplets were analyzed using the QX200 Droplet Digital PCR reader (Biorad) and Quantasoft software was used to determine the number of copies of the target and reference DNA in the droplets. The allelic gene targeting efficiency was calculated as the percentage of target DNA copies relative to that of the reference. […]
(§3) ICE analysis for quantification of gene editing. […] Following PCR, the amplicons were detected on agarose gel and purified from the gel using GeneJet Gel Extraction Kit (Thermo Fisher Scientific, cat: K0692). […]

HBB locus in PSCs = assay: RNP/AAV6 gene targeting at HBB locus in PSCs; assay type: cell-based, human; conditions: UBC-GFP-bGHpA knock-in; 0.5 μM
Method: as §1
(§4) First, we tested the treatment for editing the sickle cell disease (SCD) and cystic fibrosis (CF) mutations at HBB and CFTR loci respectively using the previously described Cas9 RNP and AAV6 donor reagents in WT PSC^71-73 (FIG. 19a-d).
PSC culture and genome editing. […] Gene targeting efficiency was analyzed at 4-6 days post-editing.
as §2, §3

HBA1 locus in PSCs = assay: RNP/AAV6 gene targeting / gene replacement at HBA1 locus in PSCs; assay type: cell-based, human
Method: as §1, §4
PSC culture and genome editing. […] For each nucleofection, RNP complex was prepared with 5 μg of Cas9 protein and 2 μg of gRNA and incubated for 15 mins at room temperature. PSCs were dissociated into single cells using Accutase (Innovative Cell Technologies, cat: AT104). […] Resuspended cells were added to one well of a 16-well Nucleocuvette Strip (Lonza) and nucleofection was performed in the 4D nucleofector (Lonza) using the program, CA137. Nucleofected PSCs were plated in mTeSR1 medium supplemented with 10 μM of Y27632 at a density of 100,000 cells per well in 48-well plate, AAV6 vector and DNA-PKcs inhibitors were added to the medium at indicated concentrations. […] From the following day, PSCs were cultured in mTeSR1 without Y27632. Gene targeting efficiency was analyzed at 4-6 days post-editing.
as §2, §3

ATM = target: T1, ATM (Homo sapiens, UniProt Q13315); conditions: A549 cells; cited from earlier work
T1 construct: various PI3K family kinases in A549 cells (data adapted from previous study); host or cells: A549 cells

ATR = target: T2, ATR (Homo sapiens, UniProt Q13535); conditions: A549 cells; cited from earlier work
T2 construct: various PI3K family kinases in A549 cells (data adapted from previous study); host or cells: A549 cells

PI3Kγ = target: T3, PI3Kγ (Homo sapiens, UniProt P48736); conditions: A549 cells; cited from earlier work
T3 construct: various PI3K family kinases in A549 cells (data adapted from previous study); host or cells: A549 cells
T3 sequence (P48736 whole entry): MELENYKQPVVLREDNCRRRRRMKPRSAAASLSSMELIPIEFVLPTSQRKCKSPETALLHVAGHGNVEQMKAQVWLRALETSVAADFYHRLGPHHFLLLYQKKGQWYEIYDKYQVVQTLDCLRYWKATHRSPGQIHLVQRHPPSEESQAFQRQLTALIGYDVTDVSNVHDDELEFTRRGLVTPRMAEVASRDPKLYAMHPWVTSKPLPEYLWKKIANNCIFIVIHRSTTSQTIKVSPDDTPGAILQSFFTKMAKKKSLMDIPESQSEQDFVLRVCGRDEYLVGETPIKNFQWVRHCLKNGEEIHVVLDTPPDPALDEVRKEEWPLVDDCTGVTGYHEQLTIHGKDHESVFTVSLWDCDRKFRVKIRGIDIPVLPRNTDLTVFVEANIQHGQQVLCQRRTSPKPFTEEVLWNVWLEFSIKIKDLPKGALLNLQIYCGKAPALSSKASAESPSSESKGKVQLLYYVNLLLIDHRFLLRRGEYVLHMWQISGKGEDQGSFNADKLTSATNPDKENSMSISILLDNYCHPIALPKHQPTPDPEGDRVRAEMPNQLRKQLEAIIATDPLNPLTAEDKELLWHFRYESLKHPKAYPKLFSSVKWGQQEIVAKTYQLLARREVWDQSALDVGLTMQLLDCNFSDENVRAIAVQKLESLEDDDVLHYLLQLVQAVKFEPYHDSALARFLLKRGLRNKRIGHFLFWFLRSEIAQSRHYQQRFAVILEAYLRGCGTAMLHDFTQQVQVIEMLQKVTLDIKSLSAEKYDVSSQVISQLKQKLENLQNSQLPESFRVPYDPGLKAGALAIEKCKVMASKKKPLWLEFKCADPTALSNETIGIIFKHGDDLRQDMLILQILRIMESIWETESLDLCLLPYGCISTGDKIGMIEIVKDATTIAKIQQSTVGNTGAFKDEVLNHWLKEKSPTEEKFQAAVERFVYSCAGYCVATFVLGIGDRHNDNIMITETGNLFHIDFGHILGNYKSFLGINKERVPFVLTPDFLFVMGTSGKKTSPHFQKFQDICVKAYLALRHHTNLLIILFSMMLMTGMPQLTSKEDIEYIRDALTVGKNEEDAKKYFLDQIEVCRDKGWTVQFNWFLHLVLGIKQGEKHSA

T2 sequence (Q13535 whole entry): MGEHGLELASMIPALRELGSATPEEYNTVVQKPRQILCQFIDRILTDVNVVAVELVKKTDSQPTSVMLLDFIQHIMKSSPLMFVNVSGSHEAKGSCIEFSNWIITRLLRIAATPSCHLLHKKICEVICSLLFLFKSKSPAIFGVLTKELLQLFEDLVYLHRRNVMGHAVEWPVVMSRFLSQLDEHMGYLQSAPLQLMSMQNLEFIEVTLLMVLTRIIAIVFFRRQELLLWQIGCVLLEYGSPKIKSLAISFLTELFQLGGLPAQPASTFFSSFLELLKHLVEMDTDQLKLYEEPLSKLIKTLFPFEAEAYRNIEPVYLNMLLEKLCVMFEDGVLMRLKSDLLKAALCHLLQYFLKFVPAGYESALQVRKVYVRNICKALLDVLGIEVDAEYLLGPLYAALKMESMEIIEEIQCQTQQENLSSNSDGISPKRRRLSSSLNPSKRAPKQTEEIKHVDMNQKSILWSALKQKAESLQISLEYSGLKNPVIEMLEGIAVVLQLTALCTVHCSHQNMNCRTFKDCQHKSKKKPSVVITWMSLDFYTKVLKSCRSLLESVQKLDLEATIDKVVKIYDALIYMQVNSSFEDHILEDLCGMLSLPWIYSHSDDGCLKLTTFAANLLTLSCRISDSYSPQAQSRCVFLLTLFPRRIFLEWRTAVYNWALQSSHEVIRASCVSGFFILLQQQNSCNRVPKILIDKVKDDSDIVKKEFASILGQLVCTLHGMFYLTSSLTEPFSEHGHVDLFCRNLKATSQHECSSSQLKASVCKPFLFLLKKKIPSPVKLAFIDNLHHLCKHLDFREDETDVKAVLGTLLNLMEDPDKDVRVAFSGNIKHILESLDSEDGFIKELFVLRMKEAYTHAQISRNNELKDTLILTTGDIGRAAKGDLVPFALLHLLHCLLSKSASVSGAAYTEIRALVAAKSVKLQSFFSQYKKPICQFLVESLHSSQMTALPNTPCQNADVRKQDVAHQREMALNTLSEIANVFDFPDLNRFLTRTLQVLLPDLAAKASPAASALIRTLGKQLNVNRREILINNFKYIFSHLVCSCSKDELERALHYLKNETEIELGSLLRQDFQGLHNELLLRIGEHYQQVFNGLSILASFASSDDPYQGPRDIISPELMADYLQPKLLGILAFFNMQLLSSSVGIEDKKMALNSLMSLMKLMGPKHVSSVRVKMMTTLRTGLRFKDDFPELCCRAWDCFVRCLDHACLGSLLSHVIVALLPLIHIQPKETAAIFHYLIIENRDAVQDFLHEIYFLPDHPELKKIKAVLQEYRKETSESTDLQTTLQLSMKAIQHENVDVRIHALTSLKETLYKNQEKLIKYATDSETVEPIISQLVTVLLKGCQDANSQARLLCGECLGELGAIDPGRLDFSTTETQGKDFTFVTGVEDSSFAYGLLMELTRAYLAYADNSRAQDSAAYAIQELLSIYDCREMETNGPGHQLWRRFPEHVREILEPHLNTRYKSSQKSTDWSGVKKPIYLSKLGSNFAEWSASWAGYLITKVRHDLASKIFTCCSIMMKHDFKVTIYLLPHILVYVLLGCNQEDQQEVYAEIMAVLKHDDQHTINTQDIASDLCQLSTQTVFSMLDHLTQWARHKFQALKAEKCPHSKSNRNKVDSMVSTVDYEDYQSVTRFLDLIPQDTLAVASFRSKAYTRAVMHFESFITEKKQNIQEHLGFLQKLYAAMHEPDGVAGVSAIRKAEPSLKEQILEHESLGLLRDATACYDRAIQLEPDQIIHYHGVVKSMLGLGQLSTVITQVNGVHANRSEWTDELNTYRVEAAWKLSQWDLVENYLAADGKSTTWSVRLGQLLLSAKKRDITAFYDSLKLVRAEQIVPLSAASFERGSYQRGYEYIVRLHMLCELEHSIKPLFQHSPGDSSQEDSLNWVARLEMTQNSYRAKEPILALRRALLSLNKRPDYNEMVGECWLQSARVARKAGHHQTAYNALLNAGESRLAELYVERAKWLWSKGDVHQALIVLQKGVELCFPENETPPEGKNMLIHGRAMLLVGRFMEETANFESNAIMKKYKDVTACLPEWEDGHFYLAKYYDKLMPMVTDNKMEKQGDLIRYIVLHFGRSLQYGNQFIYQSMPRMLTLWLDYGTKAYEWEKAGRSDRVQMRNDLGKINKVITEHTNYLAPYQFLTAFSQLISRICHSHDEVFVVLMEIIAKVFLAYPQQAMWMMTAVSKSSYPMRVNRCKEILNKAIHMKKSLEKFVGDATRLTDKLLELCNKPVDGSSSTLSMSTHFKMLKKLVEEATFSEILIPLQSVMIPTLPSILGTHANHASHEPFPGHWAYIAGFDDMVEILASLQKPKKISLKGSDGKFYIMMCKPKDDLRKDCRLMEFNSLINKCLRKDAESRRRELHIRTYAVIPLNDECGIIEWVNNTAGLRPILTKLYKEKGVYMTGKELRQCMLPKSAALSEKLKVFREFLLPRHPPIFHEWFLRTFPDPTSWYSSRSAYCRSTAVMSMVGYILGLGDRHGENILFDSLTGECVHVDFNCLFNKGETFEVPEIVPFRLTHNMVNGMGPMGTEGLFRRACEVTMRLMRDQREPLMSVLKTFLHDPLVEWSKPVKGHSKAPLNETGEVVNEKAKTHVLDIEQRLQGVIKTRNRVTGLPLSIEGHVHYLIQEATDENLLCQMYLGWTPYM
T2 sequence (Q8WXE1 whole entry partner): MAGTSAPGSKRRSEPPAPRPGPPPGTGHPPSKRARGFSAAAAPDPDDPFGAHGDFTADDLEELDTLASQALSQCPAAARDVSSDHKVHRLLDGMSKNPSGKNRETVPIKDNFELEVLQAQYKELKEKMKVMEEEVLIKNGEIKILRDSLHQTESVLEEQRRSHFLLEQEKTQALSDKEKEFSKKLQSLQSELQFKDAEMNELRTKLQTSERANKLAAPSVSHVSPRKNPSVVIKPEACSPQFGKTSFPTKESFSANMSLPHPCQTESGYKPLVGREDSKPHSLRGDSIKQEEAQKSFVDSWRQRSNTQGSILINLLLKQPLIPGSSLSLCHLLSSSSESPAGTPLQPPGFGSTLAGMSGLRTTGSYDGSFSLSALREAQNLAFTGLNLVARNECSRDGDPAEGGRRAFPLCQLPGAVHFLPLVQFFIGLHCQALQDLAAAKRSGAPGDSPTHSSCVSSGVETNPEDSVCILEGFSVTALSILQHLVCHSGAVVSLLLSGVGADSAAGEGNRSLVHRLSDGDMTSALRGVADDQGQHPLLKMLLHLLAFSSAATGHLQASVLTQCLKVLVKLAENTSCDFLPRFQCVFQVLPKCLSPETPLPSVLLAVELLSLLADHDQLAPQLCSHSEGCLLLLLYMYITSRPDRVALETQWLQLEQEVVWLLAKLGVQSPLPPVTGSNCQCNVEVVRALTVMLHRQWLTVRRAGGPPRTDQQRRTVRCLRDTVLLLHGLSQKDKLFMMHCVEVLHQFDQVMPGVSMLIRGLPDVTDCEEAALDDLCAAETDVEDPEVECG

COc1ccc([C@@H](O)c2cc(-c3ncnc4cc(N5CCOCC5)ccc34)c(F)cc2Cl)nn1 [M3814]
concentration at which gene targeting is enhanced (CCR5 locus in PSCs): effective only at 1 μM | effect on gene targeting vs untreated (HBB locus in PSCs): less prominent effect | effect on gene targeting vs untreated (HBA1 locus in PSCs; 0.5 μM): less prominent effect | concentration at which gene replacement is improved (HBA1 locus in PSCs; tested at 2 and 0.5 μM): effective only at the higher concentration | IC50 (ATM): > 30 µM | IC50 (ATR): > 30 µM | IC50 (PI3Kγ): 1.59 µM
